Data on 24 compounds can be found in patent US7205295B2, “Benzoxazin-3-ones and derivatives thereof as therapeutic agents” (Warner-Lambert Company LLC, priority 2002, dated 2007).

In this experiment the target is T1, PI3Kγ (p101/p110γ protein) (Homo sapiens, UniProt P48736).
T1 construct: HA; made in house; host or cells: Spodoptera frugiperda (Sf9) cells, baculovirus co-infection
The experiment in a line: PI3Kγ In Vitro Kinase Assay. It is filed as biochemical. The settings on record: purified recombinant p101/p110γ with G protein β1/γ2 subunits; 20 μM ATP, 25 μM PIP2; 20 minutes at room temperature. The method, then: Spodtera frugiperda cells, grown in ESF921 media, were coinfected with baculovirus expressing a glu-tagged p101 and baculovirus expressing an HA-tagged p110γ, at a 3:1 ratio of p101 baculovirus to p110γ baculovirus. Sf9 cells were grown to 1×10^7 total cells/mL in 10L bioreactors and harvested 48-72 hours post infection. Samples of infected cells were then tested for expression of p101/p110γ PI3 kinase by immunoprecipitation and Western Blot analysis methods (see below). […] NaCl was added to 150 mM, and sodium cholate was added to 1% and mixed for another 45 minutes. The lysates were clarified by centrifugation for 25 minutes at 14,000 rpm. The lysates were then loaded over anti-glu-linked Protein-G Sepaharose beads (Covance Research Products, Richmond, Calif.) using 20 mL resin/50 g cell paste. […] PI3Kγ was eluted with 6 column volumes of wash buffer that contain 100 μg/mL of a peptide that competes for binding of the glu tag. […] The fractions were stored at -80° C. until further use. Spodtera frugiperda cells were coinfected with baculovirus expressing a glu-tagged G protein β1 and baculovirus expressing a G protein […] at a 1:1 ratio of glu-tagged G protein β1 baculovirus to G protein β2 baculovirus. Sf9 cells are grown in 10 L bioreactors and harvested 48-72 hours post infection. Samples of infected cells were tested for G protein β1/β2 expression by Western Blot analysis, as described below. Cell lysates were homogenized and loaded onto a column of glu-tagged beads as in Biological Example 1 and competed off the column with a glu peptide as described in Biological Example 1. The inhibitory properties of the compounds in Table 1 were assayed in an in vitro PI3K assay. In a 96-well polypropylene plate, each well was spotted with 2 μL of […] the desired final concentration of compound in DMSO. Purified recombinant p101/p110γ protein (0.03 μg; 2.7 nM) and G protein β1/γ2 subunits (0.09 μg; 57.7 nM) for each reaction was combined in the assay buffer (30 mM HEPES, 100 mM NaCl, 1 mM EGTA, and 1 mM DTT). ATP and [γ-^32P-ATP] (0.09 μCi) were added to this mixture so that the final ATP concentration in the reaction was 20 μM. Lipid micelles were formed by sonicating phosphatidylinositol-4,5-diphosphate (PIP2), phosphatidylethanolamine (PE), and Na-cholate in the assay buffer for 10 minutes, adding MgCL2 and incubating on ice for 20 minutes, for final concentrations of 25 μM PIP2, 300 [M PE, 0.02% Na-cholate, and 10 mM MgCl2 in the reaction. The reactions were started by adding equal volumes lipid and enzyme mixture in a total volume of 50 μL, allowed to run for 20 minutes at room temperature, and stopped with 100 μL 75 mM H3PO4. The lipid product was transferred to a glass fiber filter plate and washed with 75 mM H3PO4 several times. The presence of radioactive lipid product (PIP3) was measured by adding Wallac Optiphase mix to each well and counting in a Wallac 1450 Trilux plate reader (PerkinElmer Life Sciences Inc., Boston, Mass. 02118).

T1 sequence (P48736 whole entry, species assumed): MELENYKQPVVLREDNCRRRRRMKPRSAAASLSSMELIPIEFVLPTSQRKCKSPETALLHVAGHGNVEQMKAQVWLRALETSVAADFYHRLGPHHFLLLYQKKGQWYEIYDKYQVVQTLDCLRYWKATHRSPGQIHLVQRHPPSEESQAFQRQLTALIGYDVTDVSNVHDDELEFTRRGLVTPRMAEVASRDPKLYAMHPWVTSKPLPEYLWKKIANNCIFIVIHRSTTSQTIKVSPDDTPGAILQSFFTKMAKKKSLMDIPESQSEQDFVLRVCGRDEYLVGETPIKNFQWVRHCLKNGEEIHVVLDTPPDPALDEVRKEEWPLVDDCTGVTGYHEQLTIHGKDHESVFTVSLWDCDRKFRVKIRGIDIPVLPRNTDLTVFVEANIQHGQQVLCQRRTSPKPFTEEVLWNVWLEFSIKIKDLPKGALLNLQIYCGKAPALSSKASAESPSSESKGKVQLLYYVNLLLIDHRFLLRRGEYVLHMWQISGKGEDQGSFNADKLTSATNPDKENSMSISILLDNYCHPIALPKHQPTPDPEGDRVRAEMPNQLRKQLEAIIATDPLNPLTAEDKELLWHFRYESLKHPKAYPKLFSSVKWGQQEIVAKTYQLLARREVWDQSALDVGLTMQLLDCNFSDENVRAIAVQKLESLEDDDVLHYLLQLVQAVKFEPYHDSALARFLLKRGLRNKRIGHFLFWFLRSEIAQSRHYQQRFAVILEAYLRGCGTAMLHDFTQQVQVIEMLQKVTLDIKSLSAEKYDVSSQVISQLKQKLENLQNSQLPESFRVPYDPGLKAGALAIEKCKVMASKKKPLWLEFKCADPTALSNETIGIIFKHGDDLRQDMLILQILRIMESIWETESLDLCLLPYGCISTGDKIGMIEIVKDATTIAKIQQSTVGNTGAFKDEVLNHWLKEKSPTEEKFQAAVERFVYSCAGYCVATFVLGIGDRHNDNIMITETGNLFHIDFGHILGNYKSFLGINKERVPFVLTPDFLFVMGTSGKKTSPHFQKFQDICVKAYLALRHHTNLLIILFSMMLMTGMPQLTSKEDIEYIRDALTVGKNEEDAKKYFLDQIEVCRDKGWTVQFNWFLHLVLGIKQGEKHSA
T1 sequence (Q8WYR1 whole entry partner, species assumed): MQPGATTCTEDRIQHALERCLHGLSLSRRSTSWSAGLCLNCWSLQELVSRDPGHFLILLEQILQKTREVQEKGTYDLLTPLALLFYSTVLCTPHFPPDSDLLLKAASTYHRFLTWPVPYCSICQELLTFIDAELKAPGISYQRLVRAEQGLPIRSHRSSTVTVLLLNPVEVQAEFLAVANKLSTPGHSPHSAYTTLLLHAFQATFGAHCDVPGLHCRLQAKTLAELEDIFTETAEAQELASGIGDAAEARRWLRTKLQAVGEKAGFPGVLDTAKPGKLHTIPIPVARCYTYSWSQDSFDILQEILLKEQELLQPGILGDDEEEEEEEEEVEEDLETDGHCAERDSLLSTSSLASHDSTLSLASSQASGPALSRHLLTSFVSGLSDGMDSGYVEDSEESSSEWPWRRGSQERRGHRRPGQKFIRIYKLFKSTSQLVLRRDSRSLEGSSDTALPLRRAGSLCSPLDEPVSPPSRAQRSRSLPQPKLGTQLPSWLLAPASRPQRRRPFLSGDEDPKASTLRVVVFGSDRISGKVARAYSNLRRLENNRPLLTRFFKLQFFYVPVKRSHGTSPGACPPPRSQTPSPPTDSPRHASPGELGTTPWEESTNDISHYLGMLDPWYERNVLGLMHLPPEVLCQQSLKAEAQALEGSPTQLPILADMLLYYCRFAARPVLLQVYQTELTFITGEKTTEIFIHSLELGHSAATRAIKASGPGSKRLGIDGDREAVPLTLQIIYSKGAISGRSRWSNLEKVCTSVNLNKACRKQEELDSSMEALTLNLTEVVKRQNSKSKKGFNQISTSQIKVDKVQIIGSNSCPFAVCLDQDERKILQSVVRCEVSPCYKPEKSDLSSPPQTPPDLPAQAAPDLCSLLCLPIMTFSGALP

As for `CC(C)(C)c1cc(I)cc(CN2C(=O)COc3ccc(C=C4SC(=S)NC4=O)cc32)c1` [Example 52, 4-(3-tert-Butyl-5-iodo-benzyl)-6-(4-oxo-2-thioxo-thiazolidin-5-ylidenemethyl)-4H-1,4-benzoxazin-3-one], the concentration for half-maximal inhibition (IC50) worked out at 16 nM.
`O=C1COc2c(F)cc(C=C3SC(=S)NC3=O)cc2N1` [Example 53, 8-Fluoro-6-(4-oxo-2-thioxo-thiazolidin-5-ylidenemethyl)-4H-1,4-benzoxazin-3-one]: the IC50 was found to be 43 nM.
As for `CC(C)(C)c1cc(CN2C(=O)COc3c(F)cc(C=C4SC(=S)NC4=O)cc32)cc(C(C)(C)C)c1` [Example 54, 4-(3,5-Di-tert-butyl-benzyl)-8-fluoro-6-(4-oxo-2-thioxo-thiazolidin-5-ylidenemethyl)-4H-1,4-benzoxazin-3-one], the figure is 40 nM; as for `CC(C)(C)c1cc(C#N)cc(CN2C(=O)COc3ccc(C=C4SC(=S)NC4=O)cc32)c1` [Example 55, 3-tert-Butyl-5-[3-oxo-6-(4-oxo-2-thioxo-thiazolidin-5-ylidenemethyl)-2,3-dihydro-1,4-benzoxazin-4-ylmethyl]-benzonitrile], 9 nM; as for `C=Cc1cc(CN2C(=O)COc3ccc(C=C4SC(=S)NC4=O)cc32)cc(C(C)(C)C)c1` [Example 56, 4-(3-tert-Butyl-5-vinyl-benzyl)-6-(4-oxo-2-thioxo-thiazolidin-5-ylidenemethyl)-4H-1,4-benzoxazin-3-one], 18 nM.
As for `COC(=O)c1cc(CN2C(=O)COc3ccc(C=C4SC(=S)NC4=O)cc32)cc(C(C)(C)C)c1` [Example 57, 3-tert-Butyl-5-[3-oxo-6-(4-oxo-2-thioxo-thiazolidin-5-ylidenemethyl)-2,3-dihydro-1,4-benzoxazin-4-ylmethyl]-benzoic acid methyl ester], the figure is 29 nM.
For `CC(C)(C)c1cc(CN2C(=O)COc3ccc(C=C4SC(=S)NC4=O)cc32)cc(C(=O)O)c1` [Example 58, 3-tert-Butyl-5-[3-oxo-6-(4-oxo-2-thioxo-thiazolidin-5-ylidenemethyl)-2,3-dihydro-1,4-benzoxazin-4-ylmethyl]-benzoic acid], the IC50 was determined as 32 nM.
The figure for `CC(C)(C)OC(=O)CNC(=O)c1cc(CN2C(=O)COc3ccc(C=C4SC(=S)NC4=O)cc32)cc(C(C)(C)C)c1` [Example 59, {3-tert-Butyl-5-[3-oxo-6-(4-oxo-2-thioxo-thiazolidin-5-ylidenemethyl)-2,3-dihydro-1,4-benzoxazin-4-ylmethyl]-benzoylamino}-acetic acid tert-butyl ester] is 70 nM; for `CC(C)(C)c1cc(CN2C(=O)COc3ccc(C=C4SC(=S)NC4=O)cc32)cc(C(=O)NCC(=O)O)c1` [Example 60, {3-tert-Butyl-5-[3-oxo-6-(4-oxo-2-thioxo-thiazolidin-5-ylidenemethyl)-2,3-dihydro-1,4-benzoxazin-4-ylmethyl]-benzoylamino}-acetic acid] it is 26 nM.
As for `Cc1cc(C=C2SC(=S)NC2=O)cc2c1OCC(=O)N2Cc1cc(C(C)(C)C)cc(C(C)(C)C)c1` [Example 61, 4-(3,5-Di-tert-butyl-benzyl)-8-methyl-6-(4-oxo-2-thioxo-thiazolidin-5-ylidenemethyl)-4H-1,4-benzoxazin-3-one], the IC50 is 70 nM.
As to `CC(c1cc(C(C)(C)C)cc(C(C)(C)C)c1)N1C(=O)COc2ccc(C=C3SC(=S)NC3=O)cc21` (stereo not drawn) [Example 62, 4-[1-(3,5-Di-tert-butyl-phenyl)-ethyl]-6-(4-oxo-2-thioxo-thiazolidin-5-ylidenemethyl)-4H-1,4-benzoxazin-3-one], the 50% inhibitory concentration (IC50) worked out at 850 nM.
Regarding `CCc1cc(CN2C(=O)COc3ccc(C=C4SC(=S)NC4=O)cc32)cc(C(C)(C)C)c1` [Example 63, 4-(3-tert-Butyl-5-ethyl-benzyl)-6-(4-oxo-2-thioxo-thiazolidin-5-ylidenemethyl)-4H-1,4-benzoxazin-3-one], the concentration for half-maximal inhibition (IC50) was determined as 49 nM.
For the compound `CC(=O)c1cc(CN2C(=O)COc3ccc(C=C4SC(=S)NC4=O)cc32)cc(C(C)(C)C)c1` [Example 64, 4-(3-Acetyl-5-tert-butyl-benzyl)-6-(4-oxo-2-thioxo-thiazolidin-5-ylidenemethyl)-4H-1,4-benzoxazin-3-one], the IC50 stood at 16 nM.
For the compound `CC(C)(C)c1cc(CN2C(=O)COc3ccc(C=C4SC(=S)NC4=O)cc32)cc(-c2ccccc2)c1` [Example 65, 4-(5-tert-Butyl-biphenyl-3-ylmethyl)-6-(4-oxo-2-thioxo-thiazolidin-5-ylidenemethyl)-4H-1,4-benzoxazin-3-one], the IC50 turned out to be 95 nM.
Take `CC(C)(C)c1cc(CN2C(=O)COc3ccc(C=C4SC(=O)NC4=O)cc32)cc(C(C)(C)C)n1` [Example 66, 5-[4-(2,6-Di-tert-butyl-pyridin-4-ylmethyl)-3-oxo-3,4-dihydro-2H-1,4-benzoxazin-6-ylmethylene]-thiazolidine-2,4-dione]: the IC50 was 257 nM.
The figure for `Cc1cc(C)cc(CN2C(=O)COc3c(Cl)cc(C=C4SC(=S)NC4=O)cc32)c1` [Example 67, 8-Chloro-4-(3,5-dimethyl-benzyl)-6-(4-oxo-2-thioxo-thiazolidin-5-ylidenemethyl)-4H-1,4-benzoxazin-3-one] is 60 nM; for `Cc1cc(C)cc(CN2C(=O)COc3c(Cl)cc(C=C4SC(=O)NC4=O)cc32)c1` [Example 68, 5-[8-Chloro-4-(3,5-dimethyl-benzyl)-3-oxo-3,4-dihydro-2H-1,4-benzoxazin-6-ylmethylene]-thiazolidine-2,4-dione] it is 555 nM.
In the case of `Cc1cc(C)cc(CN2C(=O)COc3c(F)cc(C=C4SC(=S)NC4=O)cc32)c1` [Example 69, 4-(3,5-Dimethyl-benzyl)-8-fluoro-6-(4-oxo-2-thioxo-thiazolidin-5-ylidenemethyl)-4H-1,4-benzoxazin-3-one], the half-maximal inhibitory concentration (IC50) turned out to be 8 nM.
As to `CC(=O)OCc1cc(CN2C(=O)COc3ccc(C=C4SC(=S)NC4=O)cc32)cc(C(C)(C)C)c1` [Example 70, Acetic acid 3-tert-butyl-5-[3-oxo-6-(4-oxo-2-thioxo-thiazolidin-5-ylidenemethyl)-2,3-dihydro-1,4-benzoxazin-4-ylmethyl]-benzyl ester], the half-inhibitory concentration (IC50) came to 12 nM.
`O=C1NC(=S)SC1=Cc1cc(F)c2c(c1)N(Cc1ccc(CN3CCOCC3)cc1)C(=O)CO2` [Example 71, 8-Fluoro-4-(4-morpholin-4-ylmethyl-benzyl)-6-(4-oxo-2-thioxo-thiazolidin-5-ylidenemethyl)-4H-1,4-benzoxazin-3-one]: the 50% inhibitory concentration (IC50) worked out at 6 nM.
Turning to `CCN(CC)Cc1ccc(CN2C(=O)COc3c(F)cc(C=C4SC(=S)NC4=O)cc32)cc1` [Example 72, 4-(4-Diethylaminomethyl-benzyl)-8-fluoro-6-(4-oxo-2-thioxo-thiazolidin-5-ylidenemethyl)-4H-1,4-benzoxazin-3-one], the IC50 was determined as 14 nM.
The figure for `O=C1NC(=S)SC1=Cc1cc(F)c2c(c1)N(Cc1ccc(CN3CCCCC3)cc1)C(=O)CO2` [Example 73, 8-Fluoro-6-(4-oxo-2-thioxo-thiazolidin-5-ylidenemethyl)-4-(4-piperidin-1-ylmethyl-benzyl)-4H-1,4-benzoxazin-3-one] is 7 nM.
For `CC(C)(C)OC(=O)N1CCN(Cc2ccc(CN3C(=O)COc4ccc(C=C5SC(=S)NC5=O)cc43)cc2)CC1` [Example 74, 4-{4-[3-Oxo-6-(4-oxo-2-thioxo-thiazolidin-5-ylidenemethyl)-2,3-dihydro-1,4-benzoxazin-4-ylmethyl]-benzyl}-piperazine-1-carboxylic acid tert-butyl ester], the IC50 was 19 nM.
Take `CC(C)(C)OC(=O)N1CCN(Cc2ccc(CN3C(=O)COc4ccc(C=C5SC(=O)NC5=O)cc43)cc2)CC1` [Example 75, 4-{4-[6-(2,4-dioxo-thiazolidin-5-ylidenemethyl)-3-oxo-2,3-dihydro-1,4-benzoxazin-4-ylmethyl]-benzyl}-piperazine-1-carboxylic acid tert-butyl ester]: the IC50 worked out at 155 nM.
